Patent publication US20250177392A1, “BROAD SPECTRUM INHIBITORS OF CYTOMEGALOVIRUS” (MICROBIOTIX, INC., priority 2022, published 2025)

Assays:
CMV AD169^IE2-YFP = experiment: Anti-CMV activity (IC50) of NAPA compounds, AD169 IE2-YFP reporter virus high-content assay in fibroblasts; type: cell-based, Human cytomegalovirus
Procedure: To identify CMV inhibitors, a high-content screening (HCS) early-stage-specific reporter assay using a CMV AD169 yellow-fluorescent protein (YFP) expressing virus (AD169^IE2-YFP) (Gardner et al., Antiviral Res., 113:49-61 (2015)) was developed to screen >112,000 compounds to identify potent inhibitors (IC50<10 μM) of cytomegalovirus having a minimal mammalian cytotoxicity (CC50) of preferably ≥100 μM. As a result, we have identified, isolated, and characterized a novel series of N-arylpyrimidinamines (NAPAs) that inhibit CMV infection. […] Further, the NAPA compounds are broadly effective at inhibiting virus infection of diverse strains and cell types.
The CMV IE1 and IE2 gene products are translated within 3-6 hours post infection (hpi) and function to stimulate viral promoters to initiate transcription of early and late viral genes (Cherrington et al., J. Virol., 63:1435-40 (1989); Meier et al., J. Virol., 71:1246-1255 (1997)). The CMV AD169 variant that expresses a viral protein chimera consisting of IE2-YFP (AD1691E2/YFP) was utilized to quantify virus infection in a high-throughput screen by a robust fluorescent signal localized exclusively to the nucleus (8-24 hpi) (Gardner et al., supra (2015); Cohen et al., Viruses, 8 (10): 295 (2016); Cohen et al., J. Virol., 90:10715-10727 (2016)). Using the AD1691E2-YFP reporter virus assay, a collection of the compound libraries (>112,000 compounds) was screened for inhibitors of the early stages of CMV replication using a confocal fluorescence microscopic plate reader (BioTek Cytation3). Infection was calculated as a percentage of nuclei containing YFP and cycloheximide (8 μM) was used as a positive control. The Z′ factor for the optimized assay was >0.5 which was sufficient to initiate screening.
We evaluated 300 primary hits using an assay funnel designed to prioritize compounds based on antiviral activity, specificity, and drug-like properties. This identified two candidates for hit-to-lead optimization that were not Pan Assay Interference compounds (PAINS) (Baell et al., J. Med. Chem., 53:2719-40 (2010); Capuzzi et al., J. Chem. Inf. Model 57:417-427 (2017); Dahlin et al., Assay Drug Dev. Technol., 14:168-174 (2016)). […] The NAPA series was chosen as the primary hit-to-lead series due to its synthetic accessibility and the >2-log range in potency observed in the preliminary SAR that provides a clear pathway to improving antiviral activity and drug-like properties.

[1] = Maximum solubility in water by nephlometry; type: physicochemical; details: Maximum solubility in water determined by nephlometry
NHDF cells = experiment: CellTiter Glo ATP luciferase assay; type: cell-based, human; details: human, 6 days
Procedure: Fibroblasts were treated with increasing concentrations of MBX-4992 and MBXC-4336 for up to 6 days and cell number was measured periodically using Hoechst stain to quantify cell proliferation (A and B). Cyclohexamide (CHX) and DMSO (−) were used as positive and negative controls for cytotoxicity respectively. Cell cytostaticity (C and D) was assessed using ATP-based CellTiter Glo luciferase assay following extended incubation with increasing concentrations of MBX-4992 and MBXC-4336 for 1 or 6 days. Relative light units (RLU) were measured following cell lysis and normalized to DMSO treated cells for each time point.
The CellTiter Glo Luminescent Assay (Promega Inc, Madison, WI) was performed according to the manufacturer's instruction. NHDF cells (10^4) were plated in a 96-well plate overnight and treated with MBX-4992 or MXC-4336 ([…]) in triplicate for up to 6 days. Cyclohexamide (50 μg/mL) was used as a control. CellTiter Glo substrate was added in a 1:1 ratio with media and CellTiter-Glo reagent followed by the analysis of luciferase activity (relative light units, RLU) using a BioTek Synergy H1 microplate reader. In parallel, an identical plate was labelled with Hoescht reagent (25 μg/mL) to quantify the cell number using a Celigo Cytometer.
Next, the cytostaticity and cytotoxicity of treatment with MBX-4992 and MBXC-4336 was analyzed. […]

Row | Compound | selectivity index (SI) (CMV AD169^IE2-YFP; CC50/IC50) | IC50 (CMV AD169^IE2-YFP; Human betaherpesvirus 5, AD169, Fibroblast) [µM] | Sol [1] | solubility kinetic ([1]; kinetic from dmso stock) [µM] | decrease of luciferase activity (NHDF cells) [%]
1 | Cc1nc(Nc2ccc(NC(=O)c3ccco3)cc2)cc(N2CCCC2)n1 [MBX-4992] | > 50 | 1.72 | high solubility | > 200 | –
2 | Cc1nc(Nc2cccc(NC(=O)c3ccco3)c2)cc(N2CCCCC2)n1 [MBXC-4336] | – | – | – | – | 10
